# Legend:
# [1] = test system: p-erbB2 (the phosphorylated form of erbB2 receptor); assay: p-erbB2 reduction in FRE/erbB2 tumors; format: in vivo, human
# From the text: An objective of the pre-clinical investigations was to determine whether the Cmax or area under the curve (AUC) of the test compound is critical for the anti-tumor efficacy. An additional goal was to establish a pharmacokinetics/pharmacodynamics (PK/PD) relationship in the FRE/erbB2 tumor model. The FRE/erbB2 is an engineered murine tumor model, which over-expresses human erbB2 with a trans-membrane mutation.
# [2] = target: erbB2 receptor autophosphorylation (Homo sapiens, UniProt P04626); assay: p-erbB2 reduction in SK-OV-3 tumors by ELISA; format: in vivo; conditions: 0.5 hr post-dosing on day 18
# Description: SK-OV-3 cells obtained from ATCC (Rockville, Md.) were grown in McCoy's medium containing 10% fetal bovine serum and pen/strep. Exponentially growing cells were harvested and inoculated SC (5 million cells/animal) into female athymic mice. The tumor measurements and body weight changes were obtained on days 1, 3, 6, 10, 13 and 18. Tumor volume was calculated by the following formula: Tumor volume (mm^3)═(W×W)/2×L (L=length & W=width). Blood samples (˜50 μl) were isolated at 0.5, 1, 2, 4 and 8 hrs after dosing on day 18 for PK-analysis. Tumors were isolated at 0.5 hr post-dosing on day 18 for PD-analysis by ELISA.
# [3] = Body weight and tolerability, MDA-MB-453 study; format: in vivo, mice; conditions: PO
# Description: Study Design: Exponentially growing MDA-MB-453 cells (DMEM/F12 with 10% FBS, and pen/strep [Gibco]) were harvested and inoculated SC (5 million cells/animal) into female athymic mice. MDA-MB-453 tumor bearing mice (˜100 mm^3 in size, N=64) were randomized in 8 groups consisting 8 animals each. Animals were treated with vehicle (PO, QD or BID) or the test compound (PO, QD or BID) as described in Table 6. The tumor measurements and body weight changes were obtained on days 1, 3, 7, 10, 14, 17, 21, 24, and 29. Tumor volume was calculated by the following formula: Tumor volume (mm^3)═(W×W)/2×L (L=length & W=width). Blood samples (˜50 μl) were isolated at 0.5, 1, 2, 4 and 8 hrs after dosing on day 29 for PK-analysis. Tumors were isolated at 0.5 hr post-dosing on day 29 for PD-analysis by ELISA.
# in vivo = conditions: athymic, mouse, plasma
# Description: The test compound was either administered using tail vein infusion or orally.
# A 1.15 mg/ml solution of the test compound was infused IV at 550 μl/hr for 2 minute ramped infusions followed by 50 μl/hr for 15 min or 4 hour daily infusions. (Projection was based on Cl of the test compound). Athymic female mice bearing FRE/erbB2 tumors (˜100 mm^3 in size) were treated with vehicle, the test compound orally or the test compound intravenously. […] The study was carried out for 7 days. Plasma and tumor samples were isolated for PK and PD analysis at the termination of study.
# Chain of erbB2 receptor autophosphorylation (P04626 23-1255): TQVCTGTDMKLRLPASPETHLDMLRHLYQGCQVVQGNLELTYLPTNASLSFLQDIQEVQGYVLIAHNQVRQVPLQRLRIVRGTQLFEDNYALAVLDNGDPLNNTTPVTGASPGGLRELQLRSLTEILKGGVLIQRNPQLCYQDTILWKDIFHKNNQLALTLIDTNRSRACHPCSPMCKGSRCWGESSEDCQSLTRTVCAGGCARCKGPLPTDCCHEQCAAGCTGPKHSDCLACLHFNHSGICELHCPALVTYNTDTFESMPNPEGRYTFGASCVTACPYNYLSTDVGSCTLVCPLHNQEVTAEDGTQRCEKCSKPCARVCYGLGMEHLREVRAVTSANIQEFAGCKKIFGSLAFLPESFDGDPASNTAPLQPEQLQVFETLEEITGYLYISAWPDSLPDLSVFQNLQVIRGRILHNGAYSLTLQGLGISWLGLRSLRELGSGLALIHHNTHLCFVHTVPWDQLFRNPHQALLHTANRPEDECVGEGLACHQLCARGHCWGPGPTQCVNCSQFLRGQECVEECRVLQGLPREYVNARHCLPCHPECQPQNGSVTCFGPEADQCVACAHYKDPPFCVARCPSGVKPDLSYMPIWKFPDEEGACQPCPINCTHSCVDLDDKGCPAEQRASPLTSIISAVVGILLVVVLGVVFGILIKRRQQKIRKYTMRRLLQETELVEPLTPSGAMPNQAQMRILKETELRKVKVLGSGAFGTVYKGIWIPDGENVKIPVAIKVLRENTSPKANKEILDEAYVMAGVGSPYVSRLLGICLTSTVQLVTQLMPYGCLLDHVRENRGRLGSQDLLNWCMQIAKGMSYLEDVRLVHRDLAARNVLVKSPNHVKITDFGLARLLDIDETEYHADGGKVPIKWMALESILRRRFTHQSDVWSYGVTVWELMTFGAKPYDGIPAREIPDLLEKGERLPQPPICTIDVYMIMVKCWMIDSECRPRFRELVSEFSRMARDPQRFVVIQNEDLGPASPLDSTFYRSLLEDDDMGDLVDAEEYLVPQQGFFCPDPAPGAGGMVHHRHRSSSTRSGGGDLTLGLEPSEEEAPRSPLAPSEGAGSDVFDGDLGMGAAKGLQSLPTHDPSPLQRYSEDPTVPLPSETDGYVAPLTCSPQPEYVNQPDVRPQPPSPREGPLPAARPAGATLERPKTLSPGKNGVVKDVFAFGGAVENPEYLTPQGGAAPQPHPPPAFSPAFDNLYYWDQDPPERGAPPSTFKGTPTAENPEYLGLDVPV
compound,measurement,setting,value
"COCC(=O)NC/C=C/c1ccc2ncnc(Nc3ccc(Oc4ccc(C)nc4)c(C)c3)c2c1 [Test Compound, E-2-Methoxy-N-(3-{4-(3-methyl-4-(6-methyl-pyridin-3-yloxy)-phenylamino)-quinazolin-6-yl}-allyl)-acetamide]",% p-erbB2 reduction,"[1]; 1.4 mg/kg IV, QD, 15 min/day",48%
same,% p-erbB2 reduction,"[1]; 10.7 mg/kg IV, 4 hr/day",53%
same,% p-erbB2 reduction,"[1]; 25 mg/kg PO, QD, termination of 7 day study",34%
same,p-erbB2 reduction,[1]; span over the IV groups 15 min/day and 4 hr/day,48-53%
same,inhibition in vivo at 25 mg/kg,"[2]; SK-OV-3, po, 0.5 h, PO, BID 25 mg/kg (Total Daily Dose = 50 mg/kg)",20%
same,inhibition in vivo at 50 mg/kg,"[2]; SK-OV-3, po, 0.5 h, PO, BID 50 mg/kg (Total Daily Dose = 100 mg/kg)",24%
same,inhibition in vivo at 100 mg/kg,"[2]; SK-OV-3, po, 0.5 h, PO, BID 100 mg/kg (Total Daily Dose = 200 mg/kg)",62%
same,inhibition in vivo at 50 mg/kg,"[2]; SK-OV-3, po, 0.5 h, PO, QD 50 mg/kg",14%
same,inhibition in vivo at 100 mg/kg,"[2]; SK-OV-3, po, 0.5 h, PO, QD 100 mg/kg",75%
same,inhibition in vivo at 200 mg/kg,"[2]; SK-OV-3, po, 0.5 h, PO, QD 200 mg/kg",90%
same,reduction of erbB2 receptor autophosphorylation,[2]; span over 50 mg/kg QD and 25 mg/kg BID,14-20%
same,average body weight Day 1,[3]; BID 25 mg/kg,22 g
same,average body weight Day 29,[3]; BID 25 mg/kg,23 g
same,average body weight Day 1,[3]; BID 50 mg/kg,23 g
same,average body weight Day 29,[3]; BID 50 mg/kg,24 g
same,average body weight Day 1,[3]; BID 100 mg/kg,23 g
same,average body weight Day 29,[3]; BID 100 mg/kg,25 g
same,average body weight Day 1,[3]; QD 50 mg/kg,23 g
same,average body weight Day 29,[3]; QD 50 mg/kg,25 g
same,average body weight Day 1,[3]; QD 100 mg/kg,23 g
same,average body weight Day 29,[3]; QD 100 mg/kg,25 g
same,average body weight Day 1,[3]; QD 200 mg/kg,22 g
same,average body weight Day 29,[3]; QD 200 mg/kg,24 g
same,"tolerability, body weight loss or animal mortality","[3]; QD or BID, 29 days",well tolerated and there was no body weight loss or animal mortality
same,AUC(0-t),in vivo,~985 ng·h/mL
same,Cmax,in vivo,~1200 ng/mL
same,concentration at 7 days,"in vivo; female, intravenous, 1.4 mg/kg",448 ± 141 ng/mL
same,concentration at 0.5 h,"in vivo; female, oral, 25 mg/kg",1460 ng/mL
